Laboratory results reported in the supplement of paper PMC10883282.
± gives the standard deviation of the averaged measurements.

Test system: HT1080
Assay: relative viability vs DMSO control (72 h) (fraction); higher = more viable cells
Outline: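 Densities for seeding sarcoma cell lines into 384-well plates were set to give 80–90% confluence. After 24 h, 2.5 µl of serially diluted compound from source plates of 10 mM to 0.0002 mM went in, and plates stayed 72 h at 37 °C in 5% CO2 with 0.1% DMSO vehicle and a 5 µM positive control. Percent growth from ATPLite readings, averaged over up to triplicate wells, served as relative viability, rescaled so 1 means full and 0 means none.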

O=C(Cc1ccc(-c2ccc(OCCN3CCOCC3)cc2)cn1)NCc1ccccc1 [KX2-391]
relative viability (0.00017 µM): 1.07 ± 0.025 | relative viability (0.00051 µM): 1.1 ± 0.013 | relative viability (0.00152 µM): 1.11 ± 0.019 | relative viability (0.00457 µM): 1.1 ± 0.033 | relative viability (0.01372 µM): 1.06 ± 0.013 | relative viability (0.04115 µM): 1.06 ± 0.022 | relative viability (0.1235 µM): 0.117 ± 0.0064 | relative viability (0.3704 µM): 0.0565 ± 0.0006 | relative viability (1.111 µM): 0.0434 ± 0.0068 | relative viability (3.333 µM): 0.0333 ± 0.0026 | relative viability (10 µM): 0.0365 ± 0.0027

O=C(Nc1cnn2ccc(N3CCC[C@@H]3c3cc(F)ccc3F)nc12)N1CC[C@H](O)C1 [Larotrectinib]
relative viability (0.00017 µM): 1.08 ± 0.042 | relative viability (0.00051 µM): 1.05 ± 0.035 | relative viability (0.00152 µM): 1.05 ± 0.039 | relative viability (0.00457 µM): 1.05 ± 0.054 | relative viability (0.01372 µM): 1.07 ± 0.038 | relative viability (0.04115 µM): 1.06 ± 0.058 | relative viability (0.1235 µM): 1.07 ± 0.014 | relative viability (0.3704 µM): 1.09 ± 0.036 | relative viability (1.111 µM): 1.04 ± 0.028 | relative viability (3.333 µM): 1.06 ± 0.022 | relative viability (10 µM): 1.03 ± 0.022

Cc1ccc(F)c(NC(=O)Nc2ccc(-c3cccc4[nH]nc(N)c34)cc2)c1 [Linifanib]
relative viability (0.00017 µM): 1.08 ± 0.022 | relative viability (0.00051 µM): 1.08 ± 0.026 | relative viability (0.00152 µM): 1.07 ± 0.017 | relative viability (0.00457 µM): 1.033 ± 0.0064 | relative viability (0.01372 µM): 1.06 ± 0.02 | relative viability (0.04115 µM): 1.07 ± 0.037 | relative viability (0.1235 µM): 1.048 ± 0.0077 | relative viability (0.3704 µM): 1.08 ± 0.0094 | relative viability (1.111 µM): 1.08 ± 0.031 | relative viability (3.333 µM): 1.08 ± 0.03 | relative viability (10 µM): 1.05 ± 0.015

C[C@]1(O)C[C@@H](c2nc(-c3ccc4ccc(-c5ccccc5)nc4c3)c3c(N)nccn32)C1 [Linsitinib]
relative viability (0.00017 µM): 1.044 ± 0.0049 | relative viability (0.00051 µM): 1.09 ± 0.025 | relative viability (0.00152 µM): 1.045 ± 0.0029 | relative viability (0.00457 µM): 1.057 ± 0.009 | relative viability (0.01372 µM): 1.04 ± 0.047 | relative viability (0.04115 µM): 1.03 ± 0.018 | relative viability (0.1235 µM): 1.03 ± 0.023 | relative viability (0.3704 µM): 0.988 ± 0.025 | relative viability (1.111 µM): 0.968 ± 0.043 | relative viability (3.333 µM): 0.968 ± 0.025 | relative viability (10 µM): 0.881 ± 0.017

Cc1ccc(NC(=O)c2ccc(CN3CCN(C)CC3)cc2)cc1Nc1nc(-c2cccnc2)cs1 [Masitinib]
relative viability (0.00017 µM): 1.02 ± 0.029 | relative viability (0.00051 µM): 1.06 ± 0.022 | relative viability (0.00152 µM): 1.06 ± 0.0062 | relative viability (0.00457 µM): 1.08 ± 0.033 | relative viability (0.01372 µM): 1.05 ± 0.019 | relative viability (0.04115 µM): 1.06 ± 0.021 | relative viability (0.1235 µM): 1.03 ± 0.032 | relative viability (0.3704 µM): 1.02 ± 0.044 | relative viability (1.111 µM): 0.89 ± 0.02 | relative viability (3.333 µM): 0.642 ± 0.06 | relative viability (10 µM): 0.177 ± 0.012

CC1(C)CNc2cc(NC(=O)c3cccnc3NCc3ccncc3)ccc21 [Motesanib]
relative viability (0.00017 µM): 1.03 ± 0.036 | relative viability (0.00051 µM): 0.975 ± 0.032 | relative viability (0.00152 µM): 1.03 ± 0.016 | relative viability (0.00457 µM): 1.03 ± 0.023 | relative viability (0.01372 µM): 1.04 ± 0.041 | relative viability (0.04115 µM): 1 ± 0.04 | relative viability (0.1235 µM): 1.02 ± 0.0035 | relative viability (0.3704 µM): 0.98 ± 0.012 | relative viability (1.111 µM): 1.01 ± 0.018 | relative viability (3.333 µM): 0.9961 ± 0.0086 | relative viability (10 µM): 0.976 ± 0.015

CC(C)N1CCN(Cc2cnc(-c3cc(-c4cccc5[nH]ccc45)cc4[nH]ncc34)o2)CC1 [Nemiralisib]
relative viability (0.00017 µM): 1 ± 0.045 | relative viability (0.00051 µM): 1.03 ± 0.015 | relative viability (0.00152 µM): 1.01 ± 0.02 | relative viability (0.00457 µM): 1.027 ± 0.0081 | relative viability (0.01372 µM): 1.008 ± 0.0024 | relative viability (0.04115 µM): 1.02 ± 0.011 | relative viability (0.1235 µM): 1.05 ± 0.045 | relative viability (0.3704 µM): 1.05 ± 0.034 | relative viability (1.111 µM): 1.08 ± 0.068 | relative viability (3.333 µM): 1.02 ± 0.033 | relative viability (10 µM): 0.858 ± 0.024

C=CC(=O)Nc1cccc(Oc2nc(Nc3ccc(N4CCN(C)CC4)cc3)nc3ccsc23)c1 [Olmutinib]
relative viability (0.00017 µM): 1.05 ± 0.021 | relative viability (0.00051 µM): 1.08 ± 0.014 | relative viability (0.00152 µM): 1.07 ± 0.017 | relative viability (0.00457 µM): 1.07 ± 0.018 | relative viability (0.01372 µM): 1.05 ± 0.049 | relative viability (0.04115 µM): 1.0797 ± 0.00078 | relative viability (0.1235 µM): 1.07 ± 0.011 | relative viability (0.3704 µM): 1.06 ± 0.019 | relative viability (1.111 µM): 1.04 ± 0.015 | relative viability (3.333 µM): 1.03 ± 0.037 | relative viability (10 µM): 0.492 ± 0.13

CC(C)(C)c1cc(NC(=O)Nc2ccc(-c3cn4c(n3)sc3cc(OCCN5CCOCC5)ccc34)cc2)no1 [Quizartinib]
relative viability (0.00017 µM): 1.12 ± 0.013 | relative viability (0.00051 µM): 1.09 ± 0.016 | relative viability (0.00152 µM): 1.087 ± 0.0076 | relative viability (0.00457 µM): 1.08 ± 0.029 | relative viability (0.01372 µM): 1.07 ± 0.014 | relative viability (0.04115 µM): 1.11 ± 0.034 | relative viability (0.1235 µM): 1.1 ± 0.035 | relative viability (0.3704 µM): 1.11 ± 0.012 | relative viability (1.111 µM): 1.04 ± 0.042 | relative viability (3.333 µM): 0.907 ± 0.048 | relative viability (10 µM): 0.806 ± 0.042

CNC(=O)c1cc(Oc2ccc(NC(=O)Nc3ccc(Cl)c(C(F)(F)F)c3)c(F)c2)ccn1 [Regorafenib]
relative viability (0.00017 µM): 1.1 ± 0.055 | relative viability (0.00051 µM): 1.128 ± 0.0073 | relative viability (0.00152 µM): 1.09 ± 0.012 | relative viability (0.00457 µM): 1.09 ± 0.012 | relative viability (0.01372 µM): 1.12 ± 0.028 | relative viability (0.04115 µM): 1.11 ± 0.056 | relative viability (0.1235 µM): 1.1 ± 0.02 | relative viability (0.3704 µM): 1.08 ± 0.021 | relative viability (1.111 µM): 1.05 ± 0.014 | relative viability (3.333 µM): 0.952 ± 0.028 | relative viability (10 µM): 0.542 ± 0.062

CO[C@H]1C[C@@H]2CC[C@@H](C)[C@@](O)(O2)C(=O)C(=O)N2CCCC[C@H]2C(=O)O[C@H]([C@H](C)C[C@@H]2CC[C@@H](OP(C)(C)=O)[C@H](OC)C2)CC(=O)[C@H](C)/C=C(\C)[C@@H](O)[C@@H](OC)C(=O)[C@H](C)C[C@H](C)/C=C/C=C/C=C/1C [Ridaforolimus]
relative viability (0.00017 µM): 1.1 ± 0.019 | relative viability (0.00051 µM): 1.08 ± 0.02 | relative viability (0.00152 µM): 1.13 ± 0.047 | relative viability (0.00457 µM): 1.08 ± 0.03 | relative viability (0.01372 µM): 1.03 ± 0.011 | relative viability (0.04115 µM): 0.99 ± 0.028 | relative viability (0.1235 µM): 0.983 ± 0.034 | relative viability (0.3704 µM): 0.9952 ± 0.0077 | relative viability (1.111 µM): 0.9672 ± 0.0023 | relative viability (3.333 µM): 0.9615 ± 0.0033 | relative viability (10 µM): 0.934 ± 0.028

COCc1c(-c2cc3cc(C)cc(OC)c3s2)c2c(N)ncnn2c1CN1CCNC(=O)C1 [Rogaratinib]
relative viability (0.00017 µM): 1.08 ± 0.023 | relative viability (0.00051 µM): 1.09 ± 0.041 | relative viability (0.00152 µM): 1.07 ± 0.028 | relative viability (0.00457 µM): 1.038 ± 0.0047 | relative viability (0.01372 µM): 1.05 ± 0.013 | relative viability (0.04115 µM): 1.06 ± 0.017 | relative viability (0.1235 µM): 1.05 ± 0.017 | relative viability (0.3704 µM): 1.07 ± 0.04 | relative viability (1.111 µM): 1.084 ± 0.0066 | relative viability (3.333 µM): 1.09 ± 0.024 | relative viability (10 µM): 1.06 ± 0.032
